Test results taken from ChEMBL document CHEMBL1201862, “PubChem BioAssay data set” (2004).
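Where inhibition never reached the appropriate level, the endpoint shown equals the highest concentration tested. Otherwise, values were interpolated linearly from a five-concentration, 48-hour dose response in 96-well plates. At the GI50, growth is halved.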 Activity calls are given as the source filed them. No stated cut-off is given here; in the data, active = GI50 up to about 1.1 µM and inactive = higher.

Key:
Test in all cases: NCI anticancer screen, dose series, 48 h
SW-620 = test system: SW-620
IGROV-1 = test system: IGROV-1
CAKI-1 = test system: CAKI-1
SK-MEL-2 = test system: SK-MEL-2
HCC 2998 = test system: HCC 2998
UACC-62 = test system: UACC-62
Hs-578T = test system: Hs-578T
DU-145 = test system: DU-145
SF-268 = test system: SF-268
LOX IMVI = test system: LOX IMVI
M14 = test system: M14
MDA-MB-231 = test system: MDA-MB-231
CCRF-CEM = test system: CCRF-CEM
PC-3 = test system: PC-3
HCT-116 = test system: HCT-116
SN12C = test system: SN12C
NCI/ADR-RES = test system: NCI/ADR-RES
RPMI-8226 = test system: RPMI-8226
K562 = test system: K562
Malme-3M = test system: Malme-3M

Row | Structure (SMILES) | GI50 (SW-620) | GI50 (IGROV-1) | GI50 (CAKI-1) | GI50 (SK-MEL-2) | GI50 (HCC 2998) | GI50 (UACC-62) | GI50 (Hs-578T) | GI50 (DU-145) | GI50 (SF-268) | GI50 (LOX IMVI) | GI50 (M14) | GI50 (MDA-MB-231) | GI50 (CCRF-CEM) | GI50 (PC-3) | GI50 (HCT-116) | GI50 (SN12C) | GI50 (NCI/ADR-RES) | GI50 (RPMI-8226) | GI50 (K562) | GI50 (Malme-3M)
1 | O=c1[nH]c(Cc2ccccc2)nc2c1sc1nc3ccccc3n12 | > 100 µM (inactive) | > 100 µM (inactive) | > 100 µM (inactive) | > 100 µM (inactive) | > 100 µM (inactive) | > 100 µM (inactive) | > 100 µM (inactive) | > 100 µM (inactive) | > 100 µM (inactive) | > 100 µM (inactive) | > 100 µM (inactive) | > 100 µM (inactive) | > 100 µM (inactive) | > 100 µM (inactive) | > 100 µM (inactive) | > 100 µM (inactive) | > 100 µM (inactive) | > 100 µM (inactive) |  | 
2 | Cc1ccc2nc(C(C)C)c(=O)[nH]c2c1 | > 100 µM (inactive) | > 100 µM (inactive) | 43.4 µM (inactive) | 15 µM (inactive) | > 100 µM (inactive) | > 100 µM (inactive) | 42.3 µM (inactive) | > 100 µM (inactive) | > 100 µM (inactive) |  | > 100 µM (inactive) | > 100 µM (inactive) | > 100 µM (inactive) | 19.9 µM (inactive) | > 100 µM (inactive) | > 100 µM (inactive) | 54.7 µM (inactive) | > 100 µM (inactive) | > 100 µM (inactive) | > 100 µM (inactive)
3 | C=C[C@H]1CN2CCc3c([nH]c4cc(O)ccc34)[C@@H]2C[C@@H]1C[C@H]1c2[nH]c3ccccc3c2CCN1C | 1.92 µM (inactive) | 1.85 µM (inactive) | 6.04 µM (inactive) | 3.21 µM (inactive) | 1.76 µM (inactive) | 4.19 µM (inactive) | 3.53 µM (inactive) | 15.6 µM (inactive) | 6.04 µM (inactive) | 4.41 µM (inactive) | 1.74 µM (inactive) | 6.05 µM (inactive) | 1.69 µM (inactive) | 4.89 µM (inactive) | 2.42 µM (inactive) | 4.79 µM (inactive) | 9.06 µM (inactive) |  | 2.78 µM (inactive) | 13.8 µM (inactive)
4 | O=[N+]([O-])c1cc(Br)cc2cc(Cl)cnc12 | 14.5 µM (inactive) | 10.1 µM (inactive) | > 100 µM (inactive) |  | > 100 µM (inactive) | 61.4 µM (inactive) | 36.9 µM (inactive) | > 100 µM (inactive) | 89.9 µM (inactive) | 82.6 µM (inactive) | > 100 µM (inactive) | > 100 µM (inactive) | > 100 µM (inactive) | > 100 µM (inactive) | > 100 µM (inactive) | > 100 µM (inactive) | > 100 µM (inactive) | > 100 µM (inactive) | > 100 µM (inactive) | > 100 µM (inactive)
5 | COC(=O)C(CCC1C=CCC1)/N=C\c1ccccc1 (centres undefined) | > 100 µM (inactive) | > 100 µM (inactive) | 50.2 µM (inactive) | 37.5 µM (inactive) | 86.3 µM (inactive) | 74.8 µM (inactive) | > 100 µM (inactive) | 97.9 µM (inactive) | 99.8 µM (inactive) | 76.7 µM (inactive) | 46.2 µM (inactive) | 68.9 µM (inactive) | 56 µM (inactive) | 35.6 µM (inactive) | 31.3 µM (inactive) | 60.4 µM (inactive) | 26.9 µM (inactive) | 24.5 µM (inactive) | 47.2 µM (inactive) | 
6 | Nc1ncnc2oc(-c3cccs3)nc12 | > 100 µM (inactive) | > 100 µM (inactive) |  | > 100 µM (inactive) | > 100 µM (inactive) | 66.1 µM (inactive) | > 100 µM (inactive) | > 100 µM (inactive) | > 100 µM (inactive) | > 100 µM (inactive) | > 100 µM (inactive) | > 100 µM (inactive) | > 100 µM (inactive) | > 100 µM (inactive) | > 100 µM (inactive) | > 100 µM (inactive) | > 100 µM (inactive) | > 100 µM (inactive) | > 100 µM (inactive) | 
7 | CC(C)(CC#N)c1cc(CC(C)(C)c2cc(CC(C)(C)c3cc(C(C)(C)C4(C)OCCO4)no3)no2)no1 | > 100 µM (inactive) | 54.1 µM (inactive) | 22.4 µM (inactive) | 42.7 µM (inactive) | > 100 µM (inactive) | 41.9 µM (inactive) | 22.8 µM (inactive) | 50.4 µM (inactive) | 39.4 µM (inactive) |  | > 100 µM (inactive) | 22.4 µM (inactive) | 45.8 µM (inactive) | 39.7 µM (inactive) | 51.4 µM (inactive) | 25.8 µM (inactive) | 47.2 µM (inactive) | > 100 µM (inactive) | > 100 µM (inactive) | 91 µM (inactive)
8 | Cc1ncc2c(=O)c3c(oc2n1)c1ccccc1n3Cc1ccccc1 | > 100 µM (inactive) | > 100 µM (inactive) | > 100 µM (inactive) |  | > 100 µM (inactive) | 27 µM (inactive) | > 100 µM (inactive) | > 100 µM (inactive) | > 100 µM (inactive) | > 100 µM (inactive) |  | > 100 µM (inactive) | > 100 µM (inactive) | > 100 µM (inactive) | > 100 µM (inactive) | > 100 µM (inactive) | > 100 µM (inactive) | > 100 µM (inactive) | > 100 µM (inactive) | > 100 µM (inactive)
9 | Cc1ccc(S(=O)(=O)NNC(=O)c2cc(C)ccc2NC(=O)C23CC4CC(CC(C4)C2)C3)cc1 | 92.9 µM (inactive) | 12.6 µM (inactive) | 46 µM (inactive) |  | 30.1 µM (inactive) | 39.7 µM (inactive) | 32.9 µM (inactive) | 29.6 µM (inactive) | 41.7 µM (inactive) | > 100 µM (inactive) | 84.7 µM (inactive) | 41.6 µM (inactive) | > 100 µM (inactive) | 34.5 µM (inactive) | 31.2 µM (inactive) | 44.4 µM (inactive) | 38.5 µM (inactive) | > 100 µM (inactive) | > 100 µM (inactive) | 23.5 µM (inactive)
10 | CCCCCCCCCCCCCCC(C(=O)[O-])[n+]1ccccc1 (centres undefined) | > 100 µM (inactive) | > 100 µM (inactive) | > 100 µM (inactive) | > 100 µM (inactive) | 97.3 µM (inactive) | 77.3 µM (inactive) | > 100 µM (inactive) | > 100 µM (inactive) | > 100 µM (inactive) | > 100 µM (inactive) | > 100 µM (inactive) | > 100 µM (inactive) | > 100 µM (inactive) | 18.8 µM (inactive) | > 100 µM (inactive) | 23.4 µM (inactive) | > 100 µM (inactive) | > 100 µM (inactive) | > 100 µM (inactive) | 
11 | O=C(/C=C/c1ccsc1)c1ccco1 | 7.55 µM (inactive) | 10.4 µM (inactive) | 6.85 µM (inactive) | 14.1 µM (inactive) | 12.2 µM (inactive) | 14.6 µM (inactive) | 9.4 µM (inactive) | 13.6 µM (inactive) | 17.1 µM (inactive) | 3.1 µM (inactive) | 11.2 µM (inactive) | 12.7 µM (inactive) | 5.86 µM (inactive) | 14.6 µM (inactive) | 5.97 µM (inactive) | 14.6 µM (inactive) | 16.6 µM (inactive) | 3.52 µM (inactive) | 4.71 µM (inactive) | 
12 | CC(C)CCCC(C)[C@H]1CCC2[C@@H]3CCC4Cc5nc6c(nc5C[C@]4(C)C3CC[C@@]21C)CC1CC[C@@H]2C(C[C@@H](O)[C@@]3(C)C2C[C@@H]2OC4(CCC(C)CO4)C(C)[C@@H]23)[C@@]1(C)C6 (some centres undefined) | > 100 µM (inactive) | > 100 µM (inactive) |  |  | > 100 µM (inactive) | > 100 µM (inactive) | > 100 µM (inactive) | > 100 µM (inactive) | > 100 µM (inactive) |  | > 100 µM (inactive) | > 100 µM (inactive) | > 100 µM (inactive) | > 100 µM (inactive) | > 100 µM (inactive) | > 100 µM (inactive) | > 100 µM (inactive) | > 100 µM (inactive) | > 100 µM (inactive) | 
13 | COc1cccc2c1C(=O)c1c(O)c3c(c(O)c1C2=O)C[C@@](O)(C(=O)CO)C[C@@H]3OC1CC(N2CCOCC2C#N)C(O)C(C)O1 (some centres undefined) | 7.23e-05 µM (active) | 8.57e-05 µM (active) | 3.53e-05 µM (active) |  | 5.37e-05 µM (active) | 9.98e-06 µM (active) | 5.73e-05 µM (active) | 4.15e-05 µM (active) | 3.82e-05 µM (active) | 0.0025 µM (active) | 5.42e-05 µM (active) | 0.00011 µM (active) | 1.94e-05 µM (active) | 0.000107 µM (active) | 2.71e-05 µM (active) | 2.14e-05 µM (active) | 5.36e-05 µM (active) | 3.01e-05 µM (active) | 2.52e-05 µM (active) | 0.0002 µM (active)
14 | Cc1cccc(-c2cc(O)c3c(C)ccnc3n2)c1 | 0.169 µM (active) | 0.681 µM (active) | 0.39 µM (active) | 0.321 µM (active) | 1.03 µM (active) | 0.461 µM (active) | 0.356 µM (active) | 1.05 µM (active) | 10 µM (inactive) | 0.667 µM (active) | 0.291 µM (active) | 0.745 µM (active) | 0.583 µM (active) | 0.371 µM (active) | 0.355 µM (active) | 0.564 µM (active) | 0.255 µM (active) | 0.468 µM (active) | 0.139 µM (active) | 
15 | Cc1c([N+](=O)[O-])oc2ccc3ccccc3c12 | 20.2 µM (inactive) | 12.1 µM (inactive) | 11.9 µM (inactive) | > 100 µM (inactive) | 25.1 µM (inactive) | 56.1 µM (inactive) | > 100 µM (inactive) | 7.74 µM (inactive) | 35.7 µM (inactive) | 18.5 µM (inactive) | 21.5 µM (inactive) | > 100 µM (inactive) | 6.32 µM (inactive) | 86.9 µM (inactive) | 4.26 µM (inactive) | 12.5 µM (inactive) | 33.4 µM (inactive) | 9.33 µM (inactive) | 18.9 µM (inactive) | 
